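Results reflect a 48-hour exposure of cells in 96-well plates to compound at five concentrations. TGI: total growth inhibition.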
Legend:
Test in all cases: DTP human tumour cell line panel, 48 h
A549 NSCLC = tested on: A549 NSCLC
NCI/ADR-RES ovarian = tested on: NCI/ADR-RES ovarian
U251 CNS = tested on: U251 CNS
MOLT-4 leukemia = tested on: MOLT-4 leukemia
SR leukemia = tested on: SR leukemia

SMILES | TGI (A549 NSCLC) [µM] | TGI (NCI/ADR-RES ovarian) [µM] | TGI (U251 CNS) [µM] | TGI (MOLT-4 leukemia) [µM] | TGI (SR leukemia) [µM]
N=C(N)SCCSC(=N)N | > 100 | > 100 | > 100 | > 100 | –
CC[C@H](C)[C@H](NC(=O)[C@H](Cc1ccc(O)cc1)NCC(F)(F)F)C(=O)OC(C)(C)C | 13 | 50 | 13.7 | 22 | 20.8
CC(=O)OC12c3ccccc3C(c3ccccc31)C1C(=O)N(Nc3ccccc3)C(=O)C12 (centres undefined) | > 100 | > 100 | > 100 | > 100 | > 100
c1ccc(C2C3=C(c4ccccc4CC3)N3c4cc5nc6ccccc6nc5cc4NC34CCCCC24)cc1 (centres undefined) | > 10 | > 10 | > 10 | > 8.19 | 2.05
CC1(C)OP(=O)(c2ccccc2)C=C1Br (centres undefined) | > 100 | > 100 | > 100 | – | > 100
CC1(C)CC(=O)c2c(nc3c(ccc4ccccc43)c2-c2ccc(NC(=O)CCCCCCCCC(=O)Nc3ccc(-c4c5c(nc6c4ccc4ccccc46)CC(C)(C)CC5=O)cc3)cc2)C1 | > 100 | > 100 | > 100 | > 100 | > 100
O=C1NC(=S)NC1C(Cc1ccccc1)c1ccco1 (centres undefined) | > 100 | > 100 | > 100 | > 100 | > 100
Cc1ccc(NC(=O)C23CC4CC(CC(C4)C2)C3)c(C(=O)NNC(=O)c2ccc(Cl)cc2)c1 | 46 | 61.1 | 37.1 | 62.3 | 30.1
COc1cc2c(OC)c3cc(C)oc(=O)c3c(O)c2c(O)c1-c1c(OC)cc2c(OC)c3cc(C)oc(=O)c3c(O)c2c1O | 38.9 | 35.7 | 31.7 | 31.8 | –
[N-]=[N+]=NCC(=O)c1c[nH]c(=O)[nH]c1=O | > 100 | > 100 | > 100 | – | > 100
CC1(C)CCCCC1/C=C/C(CC(O)(C(F)(F)F)C(F)(F)F)=N\Nc1ccc([N+](=O)[O-])cc1[N+](=O)[O-] (centres undefined) | 3.59 | > 100 | 10.7 | 5.78 | > 100
Nc1ccc(-c2nnc(-c3c(Cl)c(Cl)c(Cl)c(Cl)c3-c3nc4ccc(C(=O)c5ccccc5)cc4[nH]3)o2)cc1 | > 100 | 41 | 47.4 | 66.7 | 28.2
C=CC(C)(C)c1c(OC)oc2ccc(OC)c(C)c2c1=O | > 100 | > 100 | > 100 | > 100 | > 100
Cc1ccc([N+](=O)[O-])cc1S(=O)(=O)Nc1ccc(C(=O)/C=C/c2ccccc2)cc1 | > 100 | 66.2 | – | 23 | 54.7
COCN1C(=O)[C@@H]2CCCN2C(=O)c2ccc(Cl)cc21 | > 100 | > 100 | > 100 | > 100 | > 100
CCCCCCCCOP(=O)(O)OP(=O)(O)OCC1OC(n2ccc(N)nc2=O)C(O)C1O (centres undefined) | > 100 | > 100 | > 100 | > 100 | –
